What was measured:
[1] = system: Pseudomonas aeruginosa ATCC® 27853™; format: cell-based; settings: 3.12-25 μM; 180 minutes
How it was run: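 P. aeruginosa ATCC 27853 at 1×10^6 CFU/ml incubated 180 min with peptides (25–3.12 μM, pH 5.5 or 7.2; or 150–37.5 μg/ml, pH 5.5) versus tryptone saline; gentamicin 4 μg/ml control. Surviving CFU counted after overnight plating, expressed as log reduction in CFU/ml.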

[2] = system: corneas; assay: Corneal cytokines after intrastromal injection (MILLIPLEX MAP mouse cytokine assay); format: in vivo; settings: intrastromal 0.5 μl, 10^−4, 10^−5, 10^−6 M; 24 and 48 hours
Protocol: Corneas were injected intrastromally with 0.5 μl of peptide 95-122 at a final concentration of 10^−4 M, 10^−5 M, and 10^−6 M and vehicle (saline) control. Corneas were collected and flash frozen at 24 hours and 48 hours. Corneal lysates were analyzed for cytokines using the MILLIPLEX® MAP mouse cytokine assay for IL-7 (A), IL-15 (B), IFN-γ (C), MIP1-α (D) (EMD Millipore Corp., Billerica, Mass.). The means of independent experimental values are shown ±SEM. ***P<0.001, **P<0.01, *P<0.05 by unpaired t-test as compared to vehicle treated controls. […] Corneas were injected intrastromally with 0.5 μl of peptide 95-122 at a final concentration of 10^−4 M, 10^−5 M, and 10^−6 M and vehicle (saline) control. Corneas were collected and flash frozen at 24 hours and 48 hours. Corneal lysates were analyzed for cytokines using the MILLIPLEX® MAP mouse cytokine assay for MIP1-β (EMD Millipore Corp., Billerica, Mass.). **P<0.01, *P<0.05 by unpaired t-test as compared to vehicle treated controls. […] Corneas were injected intrastromally with 0.5 μl of peptide 95-122 at a final concentration of 10^−4 M, 10^−5 M, and 10^−6 M and vehicle (saline) control. Corneas were collected and flash frozen at 24 hours and 48 hours. Corneal lysates were analyzed for cytokines using the MILLIPLEX® MAP mouse cytokine assay for KC (A), IL-1β (B), and GM-CSF (C) (EMD Millipore Corp., Billerica, Mass.). **P<0.01, *P<0.05 by unpaired t-test as compared to vehicle treated controls.

[3] = system: swine skin wounds; assay: Swine dermal wound model, histological evaluation; format: in vivo; settings: day 14 post-wounding
Protocol: The characteristics that were measured are required to indicate features of a well-healed wound. Inflammation should be low and re-epithelialization high.
Full thickness excisional wounds were induced on the dorsum of swine (N=3) using a 1.0 cm biopsy punch. Treatments were administered (0.20 ml) to each wound (N=6 wounds per group), and the wounds were dressed with standard occlusive dressing ([…]™, 3M Corporation, St. Paul, Minn.). Treatments were reapplied daily and dressings changed. Clinical wound healing observations and wound area (2 mm) measurements were performed on days 0, 3, 5, 7, 10, and 14 post-wounding. Wound area (2 mm) data were expressed as percentage (%) of wound healing. Animals were terminated on day 14 with wounds harvested and processed for histological evaluation. […] All peptide formulation treatment groups healed faster with greater rate of closure and re-epithelialization over time, as compared to the saline control (Group A).
The histology correlated with the clinical observations. […] There were minimal differences in the amount or character of granulation tissue, inflammation, and angiogenesis. All the wounds were well filled and vascularized.

LDREANLTSSVTILPLPLQNATVEAGTR (listed as Homo sapiens) [Peptide 95-122]
activity against Pseudomonas aeruginosa at either pH (5.5, 7.2) [1]: not active
GM-CSF in corneal lysates [2]: significantly increases
IFN-γ in corneal lysates [2]: significantly increases
IL-1β in corneal lysates [2]: significantly increases
IL-7 in corneal lysates [2]: significantly increases
IL-15 in corneal lysates [2]: significantly increases
KC in corneal lysates [2]: significantly increases
MIP1-0 (MIP1-β) in corneal lysates [2]: significantly increases
MIP1-α in corneal lysates [2]: significantly increases
epidermal resurfacing and maturation of the epidermis versus saline control [3]: greater extent of epidermal resurfacing and maturation of the epidermis
Histopathology Results, Mean Angiogenesis ([3]; 3 mg/ml): 2.3
Histopathology Results, Mean Epithelization ([3]; 3 mg/ml): 4.0
Histopathology Results, Mean Granulation ([3]; 3 mg/ml): 4.0
Histopathology Results, Mean Inflammation ([3]; 3 mg/ml): 0.5

Source: patent publication US9862748B2, “Peptide compounds and methods of production and use thereof” (priority 2012, dated 2018)
